Assay results published in US20240390327A1, “THERAPEUTIC COMPOSITIONS AND METHODS” (Johns Hopkins University, priority 2021, published 2024).
Entries after “also recorded” stand apart in the source; their conditions may differ.

Experiments:
[1] = tested on: naïve rats; assay: EPO+MLT regimen in naïve neonatal rats, unanticipated effects; format: in vivo, rat; settings: doses administered the same time of day
Method: To test if EPO+MLT could prevent the onset of PHHP, on P2 CAM+IVH rats were randomized to receive either EPO+MLT or vehicle from P2 (equivalent to approximately 32 weeks human gestation) to P10 (full term in humans). Six doses of EPO (2500 U/kg/dose i.p.) or vehicle were administered on P2-P5, P7 and P9. Nine doses of MLT (20 mg/kg/dose i.p.) or vehicle were administered on P2-P10. A subset of 36 CAM-IVH pups were randomized to receive vehicle, EPO alone, MLT alone, or EPO+MLT to test impact of treatment on macrocephaly. […] To determine if EPO+MLT had any unanticipated effect on normal neurodevelopment, a set of naïve pups underwent EPO+MLT treatment.
Neurodevelopmental battery included nine tests (surface righting, negative geotaxis, cliff aversion, forelimb grasp, audio startle, eye opening, ear twitch, forelimb placement, and air righting) (Farkas et al., 2009; Bahamoori et al., 2012). Since no differences with audio startle or eye opening were noted across groups, these two tests were not included for naïve rats. Observers blinded to injury and treatment group tested 146 rats each day from P4 to P15, and then at P21.
To determine if the progressive macrocephaly and poor cliff aversion performance observed in CAM-IVH rats was preventable, we assessed the efficacy of combined EPO+MLT treatment in the neonatal period in a separate cohort of rats (n=88). […]

[2] = tested on: rats with PCL syndrome; assay: Diffusion tensor imaging in PCL model; format: in vivo, rat; settings: 11.7T MRI
Method: Diffusion Tensor Imaging was performed on an 11.7T Bruker MRI scanner. These images were processed to assign directional colors ([…] transverse, blue vertical, and green orthogonal to the plane).

[3] = tested on: CAM-IVH rats; assay: Intra-aural distance (macrocephaly) in CAM-IVH model of PHHP; format: in vivo, rat; settings: treatment P2-P10, followed through P21
Method: For each experiment with a statistical analysis, a power analysis was performed to estimate the required sample size (G*Power 3.1.9.3). We used preliminary and published data to estimate means and standard deviations for each group for the primary outcomes of intra-aural distance, ventriculomegaly, neurodevelopmental assessment, qPCR, and DTI analyses (Farkas et al., 2009; Yung et al., 2011; Baharnoori et al., 2012; Jantzie et al., 2014a,b, 2018; Robinson et al., 2016). Scanning electron microscopy qualitative analysis of EMC was set a priori as two per group. Primary endpoints were set a priori as described in the text, and were daily (P4-P15 and P21) for IAD and neurodevelopment, P5 for ventriculomegaly, P15 for periventricular YAP mRNA, and P21 for remaining assays. No animals were individually excluded except, as noted in the text, those who were removed prior to P21 due to poor health. DTI images from one rat were excluded due to poor image acquisition quality prior to quantification. Rats from both institutions and at least two separate litters were used for all experiments, except rats for SEM were prepared at one institution. Rats from both sexes were randomly assigned to injury (CAM versus sham at E18, IVH versus vehicle at P1) and to treatment group (EPO+MLT or vehicle on P2 for CAM-IVH rats). […]

[4] = tested on: rats with PCL syndrome (LPS plus Poly IC); assay: Nociception (mechanical allodynia, thermal hypersensitivity) in Post-COVID Like (PCL) model; format: in vivo, rat; settings: chronic pain lasting greater than 2 months
Method: LPS (3 mg/kg ip) is given to prime the immune system of rats on postnatal (P) 45, 46 and P47. Subsequently, Poly IC (2, 3, or 5 mg/kg ip) is given on P55 to mimic a viral exposure. The response to these stimuli are studied in the following acute, subacute and chronic timepoints. Pain and activity in an open field are outcome measures we use routinely to track the development of the PCL syndrome.
For experimental design and development of pel syndrome with cognitive assessment, LPS (3 mg/kg ip) is given to prime the immune system of rats on postnatal (P) 45, 46 and P47. Subsequently, Poly IC (5 mg/kg ip) is given on P55 to mimic a viral exposure. The response to these stimuli are studied in the following acute, subacute and chronic timepoints. Pain and Activity in an Open Field are outcome measures we use routinely to track the development of the PCL syndrome. Similarly, Touchscreen cognitive assessment occurs simultaneously throughout the Acute, SubAcute and Chronic Phases. Using a touchscreen assessment platform, we first assess visual discrimination. We then assess cognitive flexibility through a test of reversal learning, and then a test of attention called 5 choice serial reaction (5CSRTT).
After priming the immune system with systemic lipopolysaccharide (LPS) on postnatal day 45-47, rats receive the viral mimetic poly(I:C) on P55.

[5] = tested on: PBMCs; assay: PBMC secretome after buprenorphine stimulation in culture; settings: P21 PBMCs, 3 h culture; EPO 10 U/mL + MLT 20 μM; naloxone 10 μM
[6] = tested on: patients (adult traumatic brain injury; pediatric and neonatal trials); settings: cited from earlier work
[7] = tested on: rats with prenatal injury (TSHI plus intra-amniotic LPS); assay: Open field after prenatal injury (chorioamnionitis model of cerebral palsy); format: in vivo, rat; settings: P28-P30 open field
Source text: As placental structure and function is of significant clinical importance to neurologic sequelae in preterm survivors (59-61), we use a prenatal model of in utero transient systemic HI (TSHI) and intra-amniotic lipopolysaccharide (LPS) administration in pregnant rats (62-64). This approach capitalizes on an intact maternal-placental-fetal unit and is a model of PBI from extreme preterm birth (<28 weeks of gestation) that mimics dual intrauterine injury from placental underperfusion and chorioamnionitis (65). Briefly, under isoflurane anesthesia, a laparotomy is performed on embryonic day (E) 18. Uterine arteries are clamped for 60 min and followed by intra-amniotic injections of LPS (4 μg/sac; 0111:B4, Sigma, St. Louis, MO, USA) (62, 64, 65). Sham controls undergo anesthesia and laparotomy for 60 min without arterial clamping or LPS injections. Following closure of the laparotomy, dams receive narcotic pain medication, recover, and pups are born vaginally at E22, approximately equal to 30-32 weeks in human gestation. We have previously reported the effects of TSHI and LPS alone, and in concert, on CNS pathological hallmarks, functional motor outcomes, histologic placental injury, and expression of common pro-inflammatory cytokines (63, 64).
When EPO was administered in isolation, it was given from P1 to P5 at 2,000 U/kg/dose as previously published (47, 48, 54, 55, 71, 72). […]

Compound | impact on the circadian rhythm [1] | white matter microstructural integrity (directional color DTI) [2] | intra-aural distance (IAD), progressive macrocephaly [3] | chronic thermal hypersensitivity [4] | secretion of interferon gamma and IL-6 by PBMCs treated with buprenorphine [5] | adverse events in pediatric and neonatal EPO trials ([6]; high-dose, extended EPO regimens) | adverse events in meta-analyses of EPO for severe adult traumatic brain injury ([6]; versus placebo) | disinhibition (open field) [7]
COc1ccc2[nH]cc(CCNC(C)=O)c2c1 [MLT, N-acetyl-5-methoxytryptamine] | no impact was evident | the microstructural integrity is altered and the colors are muted | the IADs were not significantly different compared littermates that received vehicle | neither ROX nor MLT alone | – | – | – | –
C=CCN1CC[C@]23c4c5ccc(O)c4O[C@H]2C(=O)CC[C@@]3(O)[C@H]1C5 [naloxone] | – | – | – | – | blocked the secretion of these proinflammatory mediators | – | – | –
EPO: erythropoietin compound or erythropoietin, in particular human recombinant erythropoietin | – | – | the IADs were not significantly different compared littermates that received vehicle | – | – | no adverse events have emerged with high-dose, extended EPO regimens in neonatal trials | no adverse events were evident compared to placebo treatment | does not; also recorded: did not improve disinhibition
